Experimental data taken from patent US20250032425A1, “FIRST IN CLASS USE OF ESTROGEN RECEPTOR BETA AGONISTS IN TREATING ANGELMAN SYNDROME AND RELEVANT AUTISM SPECTRUM DISORDERS” (BROWN UNIVERSITY, priority 2023, published 2025).
Entries after “also recorded” stand apart in the source; their conditions may differ.

Experiments:
[1] = tested on: ERK/MAPK signaling pathway; assay: ERK/MAPK and S6 activation in iOPCs by immunoblotting (phosphorylated to total ratio); type: cell-based, human
From the text: FIGS. 20A-20E depict the identification of ESR-β signaling pathway in regulating OPC proliferation impaired by UBE3A depletion. FIG. 20A: Immunofluorescence to track estrogen receptor (ESR) expression in OPCs, by staining of all 3 ESRs, ESR-α, ESR-β and GPER (top panels), in iOPCs co-labeled with UBE3A (middle panels) and DAPI; scale bar, 100 μm. […] FIG. 20B: Immunoblotting to assess OPC expression of individual ESRs, by analyzing protein levels of ESR-α, ESR-β and GPER in iOPCs treated with siNC or siUBE3A, normalized to GAPDH and expressed relative to the siNC condition (set as 1.0). After treatment with siUBE3A, expression of ESR-β was decreased, while expression of GPER was increased. n=5-6 experiments. FIG. 20C: The activation of the ERK/MAPK signaling pathway in OPCs, particularly downstream of ESR-β, was analyzed in iOPCs subjected to 6 knockdown conditions: siNC, siUBE3A, siESRα, siESRβ, and combinations of siUBE3A with siESRα or siESRβ. These were followed by treatment with vehicle control or the ESR-β agonist AC-186 (10 μM, 30 min). The activation of ERK and its substrate S6 was determined by the ratio of phosphorylated to total ERK and S6 levels, adjusted relative to the vehicle control group (standard value of 1.0). ERK phosphorylation and S6 phosphorylation was decreased in cells treated with siESRβ, or siESRβ and siUBE3A combined. n=3 experiments. FIG. 20D: Immunoblotting to evaluate the role of ERK/MAPK activation in the restoration of OPC proliferation following ESR-β activation, with the addition of ERK phosphorylation inhibitors U0126 or PD98059 to UBE3A-depleted OPCs, with or without AC-186 co-treatment (10 μM. 24 hours). The quantification of Ki67 expression and UBE3A levels, being normalized to β-tubulin (TUBB1) and compared to the siNC condition (value of 1.0). n=5 experiments. FIG. 20E: A schematic depicting the regulatory role of ESR-β signaling pathway in OPC proliferation, identified by combining genetic knockdown techniques and pharmacological interventions. Activation of ESR-β selectively triggers the ERK/MAPK pathway, as shown by ERK phosphorylation and the ERK substrate S6 activation, essential for cell proliferation. […] As applicable: statistical significance was determined using One-way ANOVA followed by post-hoc comparisons, with selected comparisons presented. Significance levels marked as *p<0.05. ** p<0.005. *** p<0.001. **** p<0.0001, ns not significant, across relevant comparisons.
The siRNAs targeting UBE3A (Thermo Fisher, #4390815 and #4390816), estrogen receptors (Thermo Scientific #145909 for ESRβ, #145539 for ESRα, and #4390824 for GPER), and negative control (Thermo Scientific, #AM4615) were obtained commercially. The 10-20 nM final concentration was used with Lipofectamine RNAiMAX transfection reagent (Thermo Scientific #13778075) and incubated for at least 48 hours before the treatments of therapeutic compounds or other reagents.
Cells were collected by fast spin down in centrifuge tubes before lysis in RIPA buffer (ThermoFisher, #89901) supplemented with proteinase inhibitor cocktail (Sigma-Aldrich, #5892791001) on ice. Lysates were then spun down at 15000 rpm for 10 mins, the supernatant was collected and mixed with 4× Laemmle sample buffer (Bio-Rad, #1610747) and cooked 10 mins before SDS-PAGE and transferred with Bio-Rad fast transfer system, the membranes were blocked for one hour in 1× Tris Buffered Saline (TBS) with 1% Casein buffer (Bio-Rad, #1610782) and incubated with primary antibodies overnight at 4 degrees. After 3 times washing in TBST washing buffers (ThermoFisher, #28352), the membranes were incubated with HRP conjugated antibodies and developed with Clarity Max™ Western ECL Substrate (Bio-Rad, #1705062) before being filmed in the iBright imaging system.

[2] = tested on: Angelman syndrome (AS) mice; assay: Fear conditioning test in AS mice; type: in vivo, mouse
Experimental: Animal handling and experimental use strictly followed NIH guidelines and protocols approved by the local Institutional Animal Care and Use Committee (IACUC) of Brown University. In all experiments, Mice were age and gender-matched. Multiple liters were used for all experiments. Weaned mice, housed in groups of two to four per cage, were maintained on a 12-h light/dark cycle with food and water ad libitum.
ESRβ agonist AC-186 treatment in vivo. 10 mg/kg AC-186 was daily IP delivered after dissolved at high concentration (30 mg/ml) in DMSO and further diluted in 20% PEG300. Vehicle groups received the same volume and concentration of diluted DMSO in 20% PEG300. Treatment started at P13 and continued until mice were sacrificed at P42.
For evaluating hippocampus-dependent memory, the protocol described in Lau and Yang, et al., 2023 for the fear conditioning test was followed. Mice were placed in an electrified and sound-attenuated chamber (Coulbourn Instruments, Allentown, PA) which was exposed to a scent (0.1% coconut) diluted in ethanol (70%) on day 1. Mice were habituated to the chamber for 3 min before undergoing three conditioning trials: a tone (5 kHz, 70 dB, 30 s) co-terminating with a foot shock (0.7 mA, 1 s). Conditioning trials were separated by a 30-second interval. Following conditioning, mice rested inside the chamber for 1.5 min before returning to their home cage. […]

[3] = UBE3A-depleted iOPCs, AC-186 10 μM, 30 min

Oc1ccc(C2(c3ccccc3F)CCC(F)(F)CC2)cc1 [AC-186]
UBE3A levels [1, 3]: remained unchanged
activity of ERK [1, 3]: restored
activity of S6 [1, 3]: restored
effects on ERK/MAPK activation when ESR-α was knocked down ([1]; siESRα): did not reverse the effects of AC-186
effects on ERK/MAPK activation when ESR-β was knocked down ([1]; siESRβ): negated
Contextual fear conditioning, percentage of time spent freezing ([2]; AS mice, 10 mg/kg daily IP, vs AS vehicle, 10 mg/kg): ameliorated; also recorded: increased
cued fear conditioning ([2]; all four groups): no intergroup differences
